According to article PMC9854410, “Targeted isolation of antitubercular cycloheptapeptides and an unusual pyrroloindoline-containing new analog, asperpyrroindotide A, using LC–MS/MS-based molecular networking” (Marine Life Science & Technology, 2023):
Values after ≈ are worked out from the molar mass of the structure shown. Marks after values point to notes of the source that are not given here. Starred links: 1 amine or outer side, 2 acyl side, 3 side chain; linkers in the order of their positions; H or OH if unused. Non-standard residues stand in square brackets, D forms with d. Residues, ends and D or L forms follow the SMILES beside them. X1 = O=C([C@H]1C[C@]2(O)c3ccccc3N[C@@H]2N1[*:1])[*:2]

How the values were obtained:
[1] = system: Mycobacterium tuberculosis H37Ra (ATCC 25,177); test: microbe, parasite or virus in culture; type: cell-based; conditions: microplate Alamar Blue assay; for inhibitory activity against M. tuberculosis H37Ra at a single concentration: at a concentration of 100 μg/mL
Description: Anti-mycobacterial activity was determined against Mycobacterium tuberculosis H37Ra (ATCC 25,177) in a microplate Alamar Blue assay system (Collins et al. [1997]). The anti-tubercular drug rifampin was used as a positive control.

[2] = system: Mycobacterium marinum; parameters: method as in Hou et al. [2019b]; conditions: previous research; positive controls rifampin, streptomycin, isoniazid; ref Hou et al. [2019b]; cited from earlier work
[3] = system: Mycobacterium tuberculosis H37Ra (ATCC 25,177); conditions: reported data; ref Hou et al. 2019; cited from earlier work
Text: Supplement 42995_2022_157_MOESM1_ESM.docx, table 2: Table S2. Antitubercular activity of compounds 1, 8−19 and previously reported 2, 20−23 against Mycobacterium tuberculosis H37Ra | column: MICs (μmol/L)

Compound | MICs (μg/mL) against Mycobacterium tuberculosis H37Ra ([1]; rifampin as positive control) [µg/mL] | minimum inhibitory concentrations (MICs) against Mycobacterium marinum [2] [µM] | also measured
CC(C)[C@H]1NC(=O)[C@H](Cc2ccccc2)NC(=O)[C@@H](C(C)C)NC(=O)[C@@H](C)NC(=O)[C@H](CO)NC(=O)[C@@H](Cc2c[nH]c3ccccc23)NC(=O)[C@@H](CO)NC1=O [Compound 1, asperversiamide A] (cyclo([dV][dS][dW]S[dA][dV]F)) | > 100 | 23.4 (≈ 18.2 µg/mL) | –
CC(C)[C@H]1NC(=O)[C@H](Cc2ccccc2)NC(=O)[C@@H](C(C)C)NC(=O)[C@@H](C)NC(=O)[C@H](CO)NC(=O)[C@H]2C[C@]3(O)c4ccccc4N[C@@H]3N2C(=O)[C@@H](CO)NC1=O [Compound 8, asperpyrroindotide A] (cyclo([X1]S[dA][dV]F[dV][dS])) | > 100 | – | inhibitory activity against M. tuberculosis H37Ra at a single concentration [1]: None of them showed obvious inhibitory activity
CC(C)[C@H]1NC(=O)[C@H](Cc2ccccc2)NC(=O)[C@@H](C(C)C)NC(=O)[C@@H](C)NC(=O)[C@H](C)NC(=O)[C@H]2C[C@]3(O)c4ccccc4N[C@@H]3N2C(=O)[C@@H](CO)NC1=O [Compound 9] (cyclo([X1]A[dA][dV]F[dV][dS])) | > 100 | – | inhibitory activity against M. tuberculosis H37Ra at a single concentration [1]: None of them showed obvious inhibitory activity
NNC(=O)c1ccncc1 [isoniazid, reference compound] | – | 88.5 (≈ 12.1 µg/mL) | –
CO[C@H]1/C=C/O[C@@]2(C)Oc3c(C)c(O)c4c(O)c(c(/C=N/N5CCN(C)CC5)c(O)c4c3C2=O)NC(=O)/C(C)=C\C=C\[C@H](C)[C@H](O)[C@@H](C)[C@@H](O)[C@@H](C)[C@H](OC(C)=O)[C@@H]1C [rifampin, reference compound] | – | 19.0 (≈ 15.6 µg/mL) | MIC ([1]; Mycobacterium tuberculosis, rifampin as positive control, read-out: MICs (μg/mL) against Mycobacterium tuberculosis H37Ra): 0.0156 µg/mL (≈ 0.019 µM)
[H]/N=C(/N)N[C@H]1[C@H](O)[C@@H](O)[C@H](O[C@@H]2O[C@@H](C)[C@](O)(C=O)[C@H]2O[C@@H]2O[C@@H](CO)[C@H](O)[C@@H](O)[C@@H]2NC)[C@@H](N/C(N)=N\[H])[C@@H]1O [streptomycin, reference compound] | – | 20.1 (≈ 11.7 µg/mL) | –
asperversiamide B [Compound 2] | – | 81.2 | MICs (μmol/L) against Mycobacterium tuberculosis H37Ra [3]: 100 ^b μmol/L
asperversiamide C [Compound 3] | – | 87.5 | –
